Source: PubChem BioAssay (NCI)
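Protocol summary: plate cells (96-well), add compound at 5 concentrations, incubate 48 h, interpolate endpoints linearly. At the TGI there is no net growth.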 Where a SMILES comes first, the peptide text is derived from it. [ ]: non-standard residue; d: D form.

Experiments:
Test in all cases: growth of human tumour cells (NCI), 48 h
A498 renal = test system: A498 renal
DLD-1 colon = test system: DLD-1 colon
DMS 273 small cell lung = test system: DMS 273 small cell lung
K-562 leukemia = test system: K-562 leukemia
KM20L2 colon = test system: KM20L2 colon
LXFL 529 NSCLC = test system: LXFL 529 NSCLC
MALME-3M melanoma = test system: MALME-3M melanoma
NCI-H23 lung = test system: NCI-H23 lung
OVCAR-8 ovarian = test system: OVCAR-8 ovarian
SK-OV-3 ovarian = test system: SK-OV-3 ovarian
SNB-78 CNS = test system: SNB-78 CNS
UO-31 renal = test system: UO-31 renal
M19-MEL melanoma = test system: M19-MEL melanoma
XF 498 CNS = test system: XF 498 CNS

SMILES	TGI (A498 renal) [µM]	TGI (DLD-1 colon) [µM]	TGI (DMS 273 small cell lung) [µM]	TGI (K-562 leukemia) [µM]	TGI (KM20L2 colon) [µM]	TGI (LXFL 529 NSCLC) [µM]	TGI (MALME-3M melanoma) [µM]	TGI (NCI-H23 lung) [µM]	TGI (OVCAR-8 ovarian) [µM]	TGI (SK-OV-3 ovarian) [µM]	TGI (SNB-78 CNS) [µM]	TGI (UO-31 renal) [µM]	TGI (M19-MEL melanoma) [µM]	TGI (XF 498 CNS) [µM]
NC(=Nc1ccccc1)N/N=C/c1c[nH]c2ccccc12	2.12	30.2	13.8	30.4	1.09	14.4	3.74	2.93	3.98	4.14	19.7	12.9	–	–
O=C1Sc2ccccc2C(=O)N2CCSC12 (stereo unspecified)	> 100	> 100	> 100	> 100	> 100	> 100	> 100	> 100	> 100	> 100	> 100	> 100	> 100	–
Cc1cc(C)[n+]2c(c1)C=CC2	–	> 100	4.24	–	> 100	> 100	8.57	84.2	> 100	–	> 100	> 100	> 100	–
O=S(=O)(O)c1cc(S(=O)(=O)O)c2cc(N=Nc3ccc(N=Nc4ccc(/C=C/c5ccc(N=[N+]([O-])c6ccc(/C=C/c7ccc(N=Nc8ccc(N=Nc9ccc%10cc(S(=O)(=O)O)cc(S(=O)(=O)O)c%10c9)cc8)cc7S(=O)(=O)O)c(S(=O)(=O)O)c6)cc5S(=O)(=O)O)c(S(=O)(=O)O)c4)cc3)ccc2c1	> 100	> 100	> 100	> 100	> 100	–	> 100	> 100	> 100	> 100	> 100	> 100	> 100	> 100
N#CC1=C(O)NC(O)=C(C#N)C1c1c(Cl)cccc1Cl	64.5	58	92	> 100	> 100	–	> 100	> 100	45	69.1	> 100	> 100	> 100	> 100
CC(C)C[C@H](NC(=O)[C@H](CC(C)C)NC(=O)[C@@H](Cc1c[nH]c2ccccc12)NC(=O)[C@H](Cc1ccccc1)NC(=O)[C@@H](Cc1c[nH]c2ccccc12)NC(=O)[C@H](CCC(N)=O)NC(=O)[C@@H](CCC(N)=O)NC(=O)[C@@H]1CCCN1C(=O)[C@@H](CCCCN)NC(=O)[C@H]1CCCN1C(=O)[C@H](N)CCCN=C(N)N)C(N)=O (H-[dR][dP][dK]P[dQ]Q[dW]F[dW]LL-NH2)	88.1	> 100	> 100	> 100	> 100	–	> 31.6	> 100	> 100	> 100	> 100	> 100	> 100	> 100
N=C1C=CC(=C(c2ccc(N)cc2)c2ccc(N)cc2)C=C1	17.3	> 100	–	27.1	21.5	14	13.3	16.3	15.9	36.2	18.9	29.2	16.8	7.45
N#CCCN(CCCCN(CCC#N)C(=O)Nc1ccccc1)C(=O)Nc1ccccc1	> 100	–	–	> 100	–	–	> 100	> 100	> 100	> 100	–	> 100	–	–
COC(=O)/C1=C/C=C\C[C@@]2(C)CC(c3ccoc3)OC(=O)[C@@H]2CC[C@H]1C (stereo partly specified)	> 25	–	–	> 25	–	–	> 25	> 25	> 25	> 25	–	> 25	–	–
C[Si](C)(C)OC1(C#N)c2ccccc2CCCC12CCCC2 (stereo unspecified)	> 100	–	–	> 100	–	–	> 100	> 100	> 100	> 100	–	> 100	–	–
C=CC(=O)N1C/C(=C\c2ccc(OC)cc2)C(=O)/C(=C/c2ccc(OC)cc2)C1	3.54	–	–	> 100	–	–	8.4	4.79	> 24.2	8.39	–	3.52	–	–
COCC(C#N)NC1CC(OC2CC(O)(C(=O)CO)Cc3c(O)c4c(c(O)c32)C(=O)c2c(OC)cccc2C4=O)OC(C)C1O (stereo unspecified)	0.448	4.67	0.602	1.11	2.89	1.06	0.18	0.682	0.549	10.6	4.54	2.77	0.22	0.0678
CCOC(=O)Cc1[nH]c(C(=O)c2ccccc2)cc1C(=O)c1ccccc1	> 100	–	–	> 10	–	–	> 100	33.4	> 10	> 100	–	> 10	–	–
COc1cc2c3c(n(C)c(=O)c2cc1OC)-c1cc2c(cc1/C3=C\CCCCl)OCO2	80.7	–	–	> 100	–	–	> 100	40.9	> 100	49.3	–	> 100	–	–
COC(=O)NC(Cc1ccccc1)NC(=O)OC(C)(C)C (stereo unspecified)	> 100	–	–	> 100	–	–	> 100	> 100	> 100	> 100	–	> 100	–	–
CN(C)C(=O)N1N[C@H](c2ccccc2)[C@@H]1c1ccccc1	> 100	–	–	> 100	–	–	> 100	> 100	> 100	> 100	–	> 100	–	–
Clc1ccc(C2SCc3nc4ccccc4n32)cc1 (stereo unspecified)	55.5	–	36.2	> 100	> 100	87.1	36.7	48.3	> 100	69.9	> 100	41.7	54.3	27.5
CCN(CC)/N=C\c1c2ccccc2cc2ccccc12	> 100	–	–	> 100	–	–	> 100	> 100	> 100	> 100	–	> 100	–	–
O=C(CSc1nc2ccc(I)cc2c(=O)n1Cc1ccccc1)Nc1ccccc1	46.4	–	–	> 100	–	–	43.8	> 100	30	46.4	–	1.55	–	–
COc1cc2nc(-c3cccs3)nc(Nc3ccccc3C(=O)NN)c2cc1OC	> 100	–	–	> 100	–	–	> 100	> 100	> 100	> 100	–	> 100	–	–
